Drawing on ChEMBL document CHEMBL3124857, “Encoded library technology as a source of hits for the discovery and lead optimization of a potent and selective class of bactericidal direct inhibitors of Mycobacterium tuberculosis InhA” (J Med Chem, 2014), this text covers Selectivity ratio for one molecule.

For this assay, the system named is Mycobacterium tuberculosis. Put plainly: Selectivity for wild type Mycobacterium tuberculosis H37Rv ATCC 25618 over hygromycin-resistance Mycobacterium tuberculosis H37Rv ATCC 25618 overexpressing InhA. Type of assay: functional.

As to `CCNC(=O)[C@@H]1C[C@@H](NC(=O)c2cc(CC)nn2C)CN1C(=O)c1coc2ccccc12`, the Selectivity ratio was 16.
